Results taken from US12053476B2, “Compounds, compositions and methods for cancer patient stratification and cancer treatment” (BAYER PHARMA AKTIENGESELLSCHAFT, priority 2016, dated 2024).
pEC50, pIC50: −log10 of the molar value.

Legend:
[1] = tested on: A549; test: Cell proliferation measurement (Cell Titer Glo, 72 h); format: cell-based; conditions: Homo sapiens, A549, lung adenocarcinoma
Description: (§1) The antiproliferative activity of the compounds of the general formula (I) was examined in vitro in human cancer cells. For this purpose, 1000 cells were plated in 384-well plates with appropriate growth medium and incubated at 37° C. overnight. After 24 h, cells on one plate (0 h plate) were treated with 30 μl/cavity of CTG solution (Promega Cell Titer Glo (catalogue #G755B and G756B)) and incubated at room temperature for 10 min, and luminescence was measured by means of a VICTOR V (Perkin Elmer), in order to determine cell viability on commencement of treatment. The cells on the test plate were treated with the compounds of the general formula (I) as and incubated at 37° C. for 72 h. The compounds were added to the cells by means of an HP D300 digital dispenser in a 10-step 2,5-fold dilution series. As control, the cells were treated with vehicle (DMSO at 0.3% final concentration). After 72 h, the cells were treated with 30 μl/cavity of CTG solution (Promega Cell Titer Glo (catalogue #G755B and G756B)) and incubated at room temperature for 10 min, and luminescence was measured by means of a VICTOR V (Perkin Elmer), in order to determine cell viability at the end of treatment. The percentage effect on cell growth and the IC50 derived therefrom were determined for each test substance using the values from the 0 h plate (=maximum inhibition) and the DMSO control (=minimum inhibition). The IC50 values were calculated using a 4-parameter fit.

[2] = tested on: HeLa; test: as above; format: cell-based; conditions: Homo sapiens, cervical cancer
Description: as §1

[3] = tested on: SKMEL3; test: as above; format: cell-based; conditions: Homo sapiens, SK-MEL3, SKMEL3, melanoma
Description: as §1

[4] = tested on: HeLa cells; test: Compound sensitivity testing in cell lines (cell viability, 48 h); format: cell-based, human; conditions: 48 h
Description: (§2) 1500 NCI-H1734 or 1000 A549 cells were plated in a 384-well plate in 40 μl of RPMI supplemented with 10% Fetal Bovine Serum and 1% Pen/Strep. 24 hours after plating, a compound-library of 1924 small molecules was added at a concentration of 10 μM. Staurosporine was used a positive control for cytotoxicity at a concentration of 10 μM, and DMSO was used a negative control at a concentration of 1%. All compounds were incubated for 48 hours with indicated small molecules. After 48 hours, 384-well plates were removed from the incubator and allowed to cool to room temperature for 20 minutes. Cell viability was assessed by adding 40 μl of a 25% CELLTITERGLO® (Promega) in PBS with a THERMO COMBI™ or multichannel-pipette and incubated for 10 minutes. The luminescence signal was read using a Perkin-Elmer EnVision. Viability percentage was calculated by normalizing to DMSO controls.
1000 HeLa (DMEM), 1000 A549 (RPMI), 500 MCF-7 (DMEM), 4000 PC3 (F12-K), 1000 NCI-H2122 (RPMI) or 1500 NCI-H1563 (RPMI) cells were plated in a 384-well plate in 40 μl of corresponding growth media supplemented with 10% Fetal Bovine Serum. 24 hours after plating, indicated compounds were added at indicated concentrations and incubated for 48 hours. Cell viability was assessed as described in Compound library screening in NCI-H1734 and A549 cell lines.

[5] = biological target: T1, human full length PDE3A (Homo sapiens, UniProt Q14432); test: PDE3A enzyme inhibition (3H-cAMP Scintillation Proximity Assay); format: biochemical; conditions: Sf9 cell extract, 60 min
T1 construct: Sf9 cells overexpressing human full length PDE3A (SB Drug Discovery, UK); purchased SB Drug Discovery, UK; host or cells: Sf9
T1 sequence (Q14432 whole entry): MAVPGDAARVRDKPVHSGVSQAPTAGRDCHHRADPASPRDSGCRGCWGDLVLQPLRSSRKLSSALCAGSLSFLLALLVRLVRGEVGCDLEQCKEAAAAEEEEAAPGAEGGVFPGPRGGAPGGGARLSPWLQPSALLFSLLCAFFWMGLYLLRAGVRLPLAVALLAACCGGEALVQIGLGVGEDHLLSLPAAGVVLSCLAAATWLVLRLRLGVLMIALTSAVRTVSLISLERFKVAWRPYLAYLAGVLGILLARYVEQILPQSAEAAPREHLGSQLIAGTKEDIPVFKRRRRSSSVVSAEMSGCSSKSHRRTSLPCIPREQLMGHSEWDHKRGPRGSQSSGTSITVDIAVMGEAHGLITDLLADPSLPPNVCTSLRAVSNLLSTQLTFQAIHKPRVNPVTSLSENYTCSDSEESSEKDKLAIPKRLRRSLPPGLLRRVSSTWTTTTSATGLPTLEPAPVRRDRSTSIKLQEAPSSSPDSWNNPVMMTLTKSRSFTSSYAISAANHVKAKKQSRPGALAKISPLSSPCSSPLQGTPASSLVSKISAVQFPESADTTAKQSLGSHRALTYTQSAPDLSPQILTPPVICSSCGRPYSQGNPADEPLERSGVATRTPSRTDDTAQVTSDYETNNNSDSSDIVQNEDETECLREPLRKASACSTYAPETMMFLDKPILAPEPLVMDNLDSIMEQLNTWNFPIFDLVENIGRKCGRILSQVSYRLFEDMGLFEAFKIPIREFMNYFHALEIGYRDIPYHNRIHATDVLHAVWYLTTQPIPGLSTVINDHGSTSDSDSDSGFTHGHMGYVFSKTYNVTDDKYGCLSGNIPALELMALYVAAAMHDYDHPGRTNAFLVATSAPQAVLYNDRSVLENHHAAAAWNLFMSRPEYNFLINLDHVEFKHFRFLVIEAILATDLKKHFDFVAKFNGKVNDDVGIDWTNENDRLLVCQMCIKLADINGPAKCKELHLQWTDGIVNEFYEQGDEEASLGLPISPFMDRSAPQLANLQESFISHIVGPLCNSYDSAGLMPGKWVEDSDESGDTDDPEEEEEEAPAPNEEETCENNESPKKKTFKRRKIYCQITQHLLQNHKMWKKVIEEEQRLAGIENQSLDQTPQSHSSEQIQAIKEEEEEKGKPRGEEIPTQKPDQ
Description: The commercially available ^3H-cAMP Scintillation Proximity Assay (SPA, Perkin Elmer) system was used for enzyme inhibition studies. For the determination of the in vitro effect of test substances on the PDE3A reactions 2 μl of the respective test compound solution in DMSO (serial dilutions) were placed in wells of microtiter plates (Isoplate-96/200W; Perkin Elmer). 50 μl of a dilution of PDE3A cell extract from Sf9 cells overexpressing human full length PDE3A (SB Drug Discovery, UK) in buffer A (50 mM Tris/HCl pH 7.5, 8.3 mM MgCl2, 1.7 mM EDTA, 0.2% BSA) was added. The dilution of the PDE3A cell extract was chosen such that the reaction kinetics was linear and less than 70% of the substrate was consumed (typical dilution 1:5000). The reaction was started by addition of 50 μl (0.025 μCi) of 1:2000 in buffer A w/o BSA diluted substrate [8-^3H] adenosine 3′, 5′-cyclic phosphate (1 μCi/μl; Perkin Elmer). After incubation at room temperature for 60 min, the reaction was stopped by addition of 25 μl of a suspension containing 18 mg/ml yttrium scintillation proximity beads (Perkin Elmer) in water. The microtiter plates were sealed and measured in a Microbeta scintillation counter (PerkinElmer Wallac). IC50 values were determined from sigmoidal curves by plotting percentage PDE3A activity vs log compound concentration.

[6] = biological target: T2, PDE3B (Homo sapiens, UniProt Q13370); test: PDE3B enzyme inhibition (reported with the 3H-cAMP SPA method); format: biochemical
T2 construct: Caliper (ran the assay)
T2 sequence (Q13370 whole entry, species assumed): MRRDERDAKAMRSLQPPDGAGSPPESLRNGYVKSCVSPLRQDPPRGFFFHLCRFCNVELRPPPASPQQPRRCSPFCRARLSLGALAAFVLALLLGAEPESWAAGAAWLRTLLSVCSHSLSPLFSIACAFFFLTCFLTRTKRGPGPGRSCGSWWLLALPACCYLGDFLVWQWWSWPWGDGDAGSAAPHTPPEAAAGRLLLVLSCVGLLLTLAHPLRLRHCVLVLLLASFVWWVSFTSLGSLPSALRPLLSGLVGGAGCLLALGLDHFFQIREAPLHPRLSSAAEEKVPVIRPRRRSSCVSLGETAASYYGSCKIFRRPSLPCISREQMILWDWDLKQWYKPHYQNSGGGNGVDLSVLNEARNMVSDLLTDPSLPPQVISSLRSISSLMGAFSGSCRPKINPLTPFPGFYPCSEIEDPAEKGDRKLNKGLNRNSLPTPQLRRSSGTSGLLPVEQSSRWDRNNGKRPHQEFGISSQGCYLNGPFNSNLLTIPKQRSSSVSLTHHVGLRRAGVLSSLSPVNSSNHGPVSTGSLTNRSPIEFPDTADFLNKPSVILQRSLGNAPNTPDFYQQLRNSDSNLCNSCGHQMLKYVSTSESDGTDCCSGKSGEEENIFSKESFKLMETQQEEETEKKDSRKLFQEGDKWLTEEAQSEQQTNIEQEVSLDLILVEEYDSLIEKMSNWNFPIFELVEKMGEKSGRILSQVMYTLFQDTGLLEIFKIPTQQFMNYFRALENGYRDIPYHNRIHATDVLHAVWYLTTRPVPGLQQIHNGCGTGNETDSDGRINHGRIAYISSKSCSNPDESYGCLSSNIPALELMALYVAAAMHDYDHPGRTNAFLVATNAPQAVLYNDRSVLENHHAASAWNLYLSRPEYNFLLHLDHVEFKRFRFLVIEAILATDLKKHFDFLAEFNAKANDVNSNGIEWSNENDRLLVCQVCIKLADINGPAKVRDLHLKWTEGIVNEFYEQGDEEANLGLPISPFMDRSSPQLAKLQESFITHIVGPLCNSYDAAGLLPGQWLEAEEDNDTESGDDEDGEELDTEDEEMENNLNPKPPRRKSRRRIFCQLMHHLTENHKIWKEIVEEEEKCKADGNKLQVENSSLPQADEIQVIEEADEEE

[7] = In vitro metabolic stability in cryopreserved human hepatocytes; format: in vitro ADME; conditions: 1 μM test compound
Description: Investigation of In Vitro Metabolic Stability in Cryopreserved Human Hepatocytes (Including Calculation of Hepatic In Vivo Blood Clearance (CL) and Maximal Oral Bioavailability (Fmax))
Cryopreserved Hepatocytes (e.g. purchased from Celsis InVitroTechnologies) were briefly thawed, washed with 45 mL pre-warmed in in vitro GRO HT medium and centrifuged for 5 min at 50×g. The cell pellet was resuspended in 5 ml of Krebs-Henseleit […] (KHB). Cell viability was determined by trypan blue exclusion.
For the metabolic stability assay liver cells were distributed in WME containing 5% FCS to glass vials at a density of 1.0×10^6 vital cells/ml. The test compound was added to a final concentration of 1 μM. During incubation, the hepatocyte suspensions were continuously shaken at 580 rpm and aliquots were taken at 2, 8, 16, 30, 45 and 90 min, to which equal volumes of cold methanol were immediately added. Samples were frozen at −20° C. over night, after subsequently centrifuged for 15 minutes at 3000 rpm and the supernatant was analyzed with an Agilent 1290 HPLC-system with LCMS/MS detection.
The half-life of a test compound was determined from the concentration-time plot. From the half-life the intrinsic clearances were calculated. […] The hepatic in vivo blood clearance (CL) and the maximal oral bioavailability (Fmax) was calculated.

[8] = tested on: NCI-H1734; test: Compound library screening in NCI-H1734 and A549 cell lines; format: cell-based, human; conditions: NCI-H1734 versus A549, 48 h
Description: To identify anti-cancer compounds with cell-selective cytotoxic activity, an unbiased chemical screen was performed in two lung adenocarcinoma cell lines, A549 and NCI-H1734, both of which harbor oncogenic KRAS mutations and truncating STK11 mutations, and which were TP53 wild type and mutant (R273L), respectively. 1,924 compounds were screened from the Molecular Libraries Small-Molecule Repository validation set in the A549 and NCI-H1734 cell lines at a single concentration of 10 μM in 384-well format in duplicate. As a proxy for cellular viability, ATP content was measured after 48 hours of compound treatment.
as §2, with “After 48 hours, 384-well plates were removed from the incubator and allowed to cool to room temperature for 20 minutes.” left out

[9] = biological target: T3, PDE3A(677-1141) (Homo sapiens, UniProt Q14432); test: Differential scanning fluorimetry (DSF) binding to purified PDE3A catalytic domain; conditions: 5 μM PDE3A, 100 μM compound
T3 construct: purified PDE3A catalytic domain, PDE3A(677-1141)
T3 sequence (Q14432 677-1141): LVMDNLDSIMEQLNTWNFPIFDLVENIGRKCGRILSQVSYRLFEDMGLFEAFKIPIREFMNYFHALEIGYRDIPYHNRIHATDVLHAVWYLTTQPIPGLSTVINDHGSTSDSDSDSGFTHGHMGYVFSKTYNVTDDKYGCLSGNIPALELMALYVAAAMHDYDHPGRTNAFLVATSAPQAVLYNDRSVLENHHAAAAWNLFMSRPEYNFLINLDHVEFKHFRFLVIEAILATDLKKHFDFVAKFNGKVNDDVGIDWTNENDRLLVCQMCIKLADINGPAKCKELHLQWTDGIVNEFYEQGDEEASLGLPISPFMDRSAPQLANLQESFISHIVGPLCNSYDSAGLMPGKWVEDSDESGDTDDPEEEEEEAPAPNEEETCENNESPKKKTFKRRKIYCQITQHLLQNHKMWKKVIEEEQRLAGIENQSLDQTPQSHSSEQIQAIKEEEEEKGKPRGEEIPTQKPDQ
Description: Binding buffer: 20 mM Hepes pH 7.4, 100 μM TCEP, 1 mM MgCl2, 150 mM NaCl.

[10] = biological target: T4, PDE3A and SLFN12 complex (Homo sapiens, UniProt Q14432); test: DNMDP-induced PDE3A protein interactions by immunoprecipitation and immunoblotting; format: cell-based; conditions: HeLa cells, 10 μM, 4 hours
T4 construct: Immunoprecipitation of endogenous PDE3A in HeLa cells treated with DNMDP; host or cells: HeLa
T4 sequence (Q14432 whole entry): as the sequence (Q14432 whole entry) above
T4 sequence (Q8IYM2 whole entry partner): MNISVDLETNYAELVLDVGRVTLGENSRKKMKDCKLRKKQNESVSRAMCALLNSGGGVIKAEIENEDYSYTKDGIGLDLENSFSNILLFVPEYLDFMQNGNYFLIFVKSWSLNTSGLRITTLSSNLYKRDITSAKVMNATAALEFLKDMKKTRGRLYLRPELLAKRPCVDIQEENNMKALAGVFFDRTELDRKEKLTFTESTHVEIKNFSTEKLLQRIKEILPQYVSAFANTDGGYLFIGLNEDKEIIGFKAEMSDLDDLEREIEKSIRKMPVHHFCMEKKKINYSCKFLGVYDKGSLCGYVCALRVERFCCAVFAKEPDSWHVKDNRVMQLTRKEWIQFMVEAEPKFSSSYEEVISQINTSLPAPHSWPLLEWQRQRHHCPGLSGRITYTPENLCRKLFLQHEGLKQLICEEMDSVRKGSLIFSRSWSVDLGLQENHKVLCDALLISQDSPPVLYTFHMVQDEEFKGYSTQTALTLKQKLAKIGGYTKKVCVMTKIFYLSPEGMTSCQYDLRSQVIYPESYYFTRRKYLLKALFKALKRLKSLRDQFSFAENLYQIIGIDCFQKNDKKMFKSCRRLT
Excerpt: Binding of DNMDP altered the composition of interacting proteins that were co-immunoprecipitated with PDE3A. […] These proteins specifically interacted with PDE3A in the presence of DNMDP, and were not observed in the trequinsin treated control, whereas a known PDE3B interactor, abhydrolase domain-containing protein 15 (ABHD15, Chavez et al., Biochem. Biophys. Res. Commun. 342, 1218-1222, 2006), was enriched in the immunoprecipitate from trequinsin-treated cells (FIG. 13C and FIG. 14C). The interaction promoted by DNMDP between PDE3A and both SIRT7 and SLFN12 was validated with affinity reagents. Immunoprecipitation of endogenous PDE3A in HeLa cells treated with DNMDP, but not DMSO or trequinsin, enhanced complex formation of ectopically expressed V5-tagged SIRT7 and SLFN12 with PDE3A, as evidenced by coimmunoprecipitation (FIG. 19). […] Without being bound to theory, PDE3A/SLFN12 complex formation correlated with cell killing (FIGS. 21A-21C).
HeLa cells were transfected with ORF overexpression constructs expressing V5-tagged SIRT7, V5-tagged SLFN12, or V5-tagged GFP. ORF expression constructs were obtained from the TRC (clone IDs: TRCN0000468231, TRCN0000476272, ccsbBroad304_99997). At 72 hours post transfection, cells were treated with 10 μM DNMDP or trequinsin for 4 hours followed by lysis using the ModRipa lysis buffer and immunoprecipitation of PDE3A. […]

[11] = tested on: HeLa cells; test: Caspase activity in HeLa cells (Caspase-Glo); format: cell-based, human; conditions: 48 h
Description: Thus one aspect of the invention is the use of DNMDP for the treatment of lung adenocarcinoma and cervical cancer.
1000 HeLa cells were plated in 384-well plate in 40 μl of corresponding growth media supplemented with 10% Fetal Bovine Serum. 24 hours after plating, indicated compounds were added at indicated concentrations and incubated for 48 hours. Caspase-Glo from Promega was added according to the manufacturers recommendations and luminescence was determined as described in Compound library screening in NCI-H1734 and A549 cell lines.

pIC50 [1] | pIC50 [2] | pIC50 [3] | pEC50 ([4]; Homo sapiens) | pIC50 [5] | pIC50 [6] | mean metabolic stability (Fmax) [7] [%] | Tm [9] [°C] | Structure (SMILES) | EC70 HeLa cell viability [4] [nM] | selective toxicity in dose-response retest (in words) [8] | PDE3A and SLFN12 complex formation [10] | caspase activity (apoptosis) [11]
< 6.22 | 9.49 | 9.36 | 8.96 | 8.62 | 8.47 | 93 | – | C[C@@H]1CC(=O)NN=C1c1cc(F)c(N2CCOCC2)c(Cl)c1 [Compound 6, (5R)-6-[3-chloro-5-fluoro-4-(morpholin-4-yl)phenyl]-5-methyl-4,5-dihydropyridazin-3(2H)-one] | – | – | – | –
– | – | – | – | – | – | – | 58.4 ± 0.0 | CCN(CC)c1ccc(C2=NNC(=O)CC2C)cc1[N+](=O)[O-] (stereo not drawn) [DNMDP, 6-(4-(diethylamino)-3-nitrophenyl)-5-methyl-4,5-dihydropyridazin-3(2H)-one] | 30 | specifically toxic to the NCI-H1734 cell line | induced PDE3A and SFLN12 complex formation | Caspase activity was detected
